Legend:
[1] = test system: A549; experiment: Antitumor activity against human A549 cells after 3 days by SRB assay; assay type: functional, cell-based; details: A549, 72 h
[2] = test system: HeLa; experiment: Antitumor activity against human HeLa cells after 3 days by SRB assay; assay type: functional, cell-based; details: 72 h
[3] = test system: A549; experiment: Potency index, ratio of IC50 for rhein to IC50 for test compound against human A549 cells after 3 days by SRB assay; assay type: functional
[4] = test system: HeLa; experiment: Potency index, ratio of IC50 for rhein to IC50 for test compound against human HeLa cells after 3 days by SRB assay; assay type: functional

| SMILES | IC50 [1] | IC50 [2] | Ratio IC50 [3] | Ratio IC50 [4] |
| --- | --- | --- | --- | --- |
| CN(CCO)c1nc2cc(O)c3c(c2s1)C(=O)c1cccc(O)c1C3=O | 45.9 µM | 30.6 µM |  |  |
| O=C(O)c1cc(O)c2c(c1)C(=O)c1cccc(O)c1C2=O [RHEIN] | 95.8 µM | 92.2 µM |  |  |
| O=C1c2c(O)cccc2C(=O)c2c1c(O)cc1nc(N3CCN(CCN4CCCC4)CC3)sc21 | 70.3 µM | 81.1 µM |  |  |
| CCN(CC)CCN1CCN(c2nc3cc(O)c4c(c3s2)C(=O)c2cccc(O)c2C4=O)CC1 | > 100 µM | > 100 µM |  |  |
| O=C1c2c(O)cccc2C(=O)c2c1c(O)cc1nc(N3CCCCCC3)sc21 | 39.4 µM | 41 µM |  |  |
| CCCCN(CCCC)CCN1CCN(c2nc3cc(O)c4c(c3s2)C(=O)c2cccc(O)c2C4=O)CC1 | 57.1 µM | > 100 µM |  |  |
| CC(C)N(CCN1CCN(c2nc3cc(O)c4c(c3s2)C(=O)c2cccc(O)c2C4=O)CC1)C(C)C | > 100 µM | > 100 µM |  |  |
| CCN(CC)c1nc2cc(O)c3c(c2s1)C(=O)c1cccc(O)c1C3=O | 108 µM | 86.7 µM |  |  |
| O=C1c2c(O)cccc2C(=O)c2c1c(O)cc1nc(N3CCN(CCN4CCOCC4)CC3)sc21 | > 100 µM | > 100 µM |  |  |
| O=C1c2c(O)cccc2C(=O)c2c1c(O)cc1nc(N3CCN(CCN4CCCCC4)CC3)sc21 | 46.4 µM | 86.9 µM |  |  |
| O=C1c2c(O)cccc2C(=O)c2c1c(O)cc1nc(N3CCCC3)sc21 | 148 µM | 44.8 µM |  |  |
| O=C1c2c(O)cccc2C(=O)c2c1c(O)cc1nc(N3CCN(C4CC4)CC3)sc21 | 65.7 µM | 58.1 µM |  |  |
| CCOC(=O)N1CCN(c2nc3cc(O)c4c(c3s2)C(=O)c2cccc(O)c2C4=O)CC1 | 54.8 µM | 68.4 µM |  |  |
| O=C1c2c(O)cccc2C(=O)c2c1c(O)cc1nc(N3CCCCC3)sc21 | > 100 µM | 55.8 µM |  |  |
| CC1CCN(c2nc3cc(O)c4c(c3s2)C(=O)c2cccc(O)c2C4=O)CC1 | 66 µM | 60.4 µM |  |  |
| CC1CCN(CCN2CCN(c3nc4cc(O)c5c(c4s3)C(=O)c3cccc(O)c3C5=O)CC2)CC1 | 38.2 µM | 82.1 µM |  |  |
| CC(C)N(c1nc2cc(O)c3c(c2s1)C(=O)c1cccc(O)c1C3=O)C(C)C | > 100 µM | 118 µM |  |  |
| CC(C)N1CCN(CCN2CCN(c3nc4cc(O)c5c(c4s3)C(=O)c3cccc(O)c3C5=O)CC2)CC1 | 54 µM | > 100 µM |  |  |

Now those with a lower IC50 [1], led by results:

| IC50 [1] | IC50 [2] | SMILES | Ratio IC50 [3] | Ratio IC50 [4] |
| --- | --- | --- | --- | --- |
| 33.4 µM | 30.3 µM | O=C1c2c(O)cccc2C(=O)c2c1c(O)cc1nc(N3CCOCC3)sc21 |  |  |
| 32.8 µM | > 100 µM | CN(C)CCN1CCN(c2nc3cc(O)c4c(c3s2)C(=O)c2cccc(O)c2C4=O)CC1 |  |  |
| 30.4 µM | 23.2 µM | CN(CC(O)CO)c1nc2cc(O)c3c(c2s1)C(=O)c1cccc(O)c1C3=O (centres undefined) |  |  |
| 24.2 µM | 80.1 µM | CN1CCN(CCN2CCN(c3nc4cc(O)c5c(c4s3)C(=O)c3cccc(O)c3C5=O)CC2)CC1 |  |  |
| 23.4 µM | 71.3 µM | CCN1CCN(CCN2CCN(c3nc4cc(O)c5c(c4s3)C(=O)c3cccc(O)c3C5=O)CC2)CC1 |  |  |
| 21.1 µM | 26.9 µM | O=C1c2c(O)cccc2C(=O)c2c1c(O)cc1nc(N3CCCC(O)C3)sc21 (centres undefined) |  |  |
| 20.2 µM | 27.4 µM | CN1CCN(c2nc3cc(O)c4c(c3s2)C(=O)c2cccc(O)c2C4=O)CC1 |  |  |
| 19.6 µM | 16.7 µM | O=C1c2c(O)cccc2C(=O)c2c1c(O)cc1nc(N3CCCCC3CCO)sc21 (centres undefined) |  |  |
| 15.2 µM | 19.7 µM | O=CN1CCCN(c2nc3cc(O)c4c(c3s2)C(=O)c2cccc(O)c2C4=O)CC1 |  |  |
| 15 µM | 14.8 µM | CC(C)N1CCN(c2nc3cc(O)c4c(c3s2)C(=O)c2cccc(O)c2C4=O)CC1 |  |  |
| 6.5 µM | 4.5 µM | O=C1c2c(O)cccc2C(=O)c2c1c(O)cc1nc(N3CCN(CCO)CC3)sc21 |  |  |
| 6.3 µM | 11.8 µM | CN(C)C1CCN(c2nc3cc(O)c4c(c3s2)C(=O)c2cccc(O)c2C4=O)CC1 |  |  |
| 5.4 µM | 4.3 µM | CCN1CCN(c2nc3cc(O)c4c(c3s2)C(=O)c2cccc(O)c2C4=O)CC1 | 30 | 30 |

Reference: ChEMBL document CHEMBL3352091, “Natural product-based design, synthesis and biological evaluation of anthra[2,1-d]thiazole-6,11-dione derivatives from rhein as novel antitumour agents” (Eur J Med Chem, 2014)
